This note sets out measurements from patent US12006373B1, “Identification and evaluation of novel peptide ligands specific to human CD3 epsilon” (Board of Trustees of the University of Alabama, for and on …, priority 2020, dated 2024).

The subject of experiment [1] is 2PK3 mouse B lymphoma cells. The following applies: varying tetramer concentrations; cells lack TCR-CD3.
Experiment [2] has as its target T1, CD3ε expressed on Jurkat cells (Homo sapiens, UniProt P07766).
T1 construct: against CD3ε expressed on Jurkat cells; host or cells: Jurkat T cells (E6-1)
Put plainly: Binding assay of peptide tetramers on Jurkat cells by flow cytometry. The following applies: for Kd: peptide tetramer on Alexa Fluor 488 streptavidin, CD3ε-expressing Jurkat cells, read-out: affinity (Kd); for binding of peptide tetramers to Jurkat cells: varying tetramer concentrations, 30 minutes on ice. The protocol:
The results were analyzed using FlowJo software.
Background: Flow cytometry measures light scatter and fluorescence of single cells or particles in a stream.

Experiment [3] has as its target T2, human recombinant CD3ε protein (Homo sapiens, UniProt P07766).
T2 construct: purchased Sino Biological
Put plainly: Biopanning of Ph.D.-7 phage display peptide library, sequencing of plaques. The following applies: after the 5th round of biopanning, 18 out of 20 plaques; phage clone displaying the sequence. The protocol: 1.2 Biopanning: Screening of the Ph.D.-7 phage display peptide library on human recombinant CD3ε protein as the target protein was carried out according to the manufacturer's protocol with modifications. Briefly, 50 μl of a 50% aqueous suspension of Pierce protein A/G magnetic beads was washed with 1 ml of TBST washing buffer (tris-buffered saline with 0.1% tween) on a magnetic separator and blocked in blocking buffer (0.1 M NaHCO3 (pH 8.6) with 0.5% (w/v) BSA) for 1 h at 4° C. on a rotator. Two picomoles of target protein was mixed with 10^11 pfu (plaque-forming unit) of the phage library in 200 μl of TBST buffer and incubated for 15 minutes at room temperature on a rotator and then incubated with pre-washed and pre-blocked magnetic beads for 15 minutes at room temperature on a rotator. After the microbeads were washed vigorously for 15 times with 1 ml TBST, the bound phage was eluted by 1 ml of glycine buffer (0.2 M Glycine-HCl (pH 2.2)+0.1% (w/v) BSA) and neutralized by addition of 150 μl of 1 M Tris-HCl (pH 9.1). […]
1.3 DNA Sequencing of Phage Clones: After the third and fifth round of biopanning, the ssDNA of selected phage clones was harvested following the standard protocol (NEB). […] The purified DNA of each clone was sequenced by Sanger sequencing (UAB Genomics Core Laboratories) using the −96 gIII primer and analyzed using Geneious Prime 2019 software suite.

T1 sequence (P07766 23-207): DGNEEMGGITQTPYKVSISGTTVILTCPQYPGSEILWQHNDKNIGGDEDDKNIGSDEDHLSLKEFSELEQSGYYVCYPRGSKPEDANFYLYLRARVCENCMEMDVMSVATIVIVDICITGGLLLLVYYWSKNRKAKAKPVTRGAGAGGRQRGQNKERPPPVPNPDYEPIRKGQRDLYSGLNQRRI
T1 sequence (P09693 23-182 partner): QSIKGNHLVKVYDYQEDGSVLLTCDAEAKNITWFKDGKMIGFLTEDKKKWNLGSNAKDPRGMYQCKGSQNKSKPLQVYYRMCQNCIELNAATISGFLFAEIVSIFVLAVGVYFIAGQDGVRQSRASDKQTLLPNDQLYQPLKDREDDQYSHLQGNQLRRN
T1 sequence (P04234 22-171 partner): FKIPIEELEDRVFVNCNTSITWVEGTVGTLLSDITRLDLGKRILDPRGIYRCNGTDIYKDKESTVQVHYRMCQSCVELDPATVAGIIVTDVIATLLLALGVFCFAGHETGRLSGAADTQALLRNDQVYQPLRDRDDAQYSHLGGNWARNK
T1 sequence (P20963 22-164 partner): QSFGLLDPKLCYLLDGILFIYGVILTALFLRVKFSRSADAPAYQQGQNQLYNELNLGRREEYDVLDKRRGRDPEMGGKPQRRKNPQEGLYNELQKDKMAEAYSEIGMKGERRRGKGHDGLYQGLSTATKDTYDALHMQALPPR
T1 sequence (P01848 whole entry partner): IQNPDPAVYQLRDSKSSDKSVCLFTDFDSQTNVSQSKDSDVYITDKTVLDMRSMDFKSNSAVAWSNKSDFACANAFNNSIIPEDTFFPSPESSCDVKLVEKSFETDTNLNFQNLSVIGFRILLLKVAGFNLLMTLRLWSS
T1 sequence (P01850 whole entry partner): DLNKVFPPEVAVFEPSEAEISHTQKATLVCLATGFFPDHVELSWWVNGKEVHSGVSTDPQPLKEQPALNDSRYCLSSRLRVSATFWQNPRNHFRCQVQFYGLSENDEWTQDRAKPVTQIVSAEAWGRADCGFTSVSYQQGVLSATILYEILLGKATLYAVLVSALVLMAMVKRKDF
T2 sequence (P07766 23-207): as the sequence (P07766 23-207) above

Consider “FWSSPQMGGGS [SEQ ID NO: 30]-PEG6-K-biotin [anti-CD3ε peptide 11 tetramer]”, for which the “binding of peptide tetramers to 2PK3 cells” value in experiment [1] is listed as “no specific attachment”. Further, in experiment [2], the Kd is about 100 µM and the “binding of peptide tetramers to Jurkat cells” value is given as “incremental binding to the Jurkat cells in a dose-dependent manner”.

In the case of WSLGYTG [anti-CD3ε peptide 13], in experiment [3], the “share of tested plaques occupied by the clone” value came to 90%.

Consider “WSLGYTGGGGS [SEQ ID NO: 31]-PEG6-K-biotin [anti-CD3ε peptide 13 tetramer]”, for which the “binding of peptide tetramers to 2PK3 cells” value in experiment [1] is on record as “no specific attachment”. Also, in experiment [2], the Kd was about 100 µM and the “binding of peptide tetramers to Jurkat cells” value is given as “incremental binding to the Jurkat cells in a dose-dependent manner”.

For orientation: Kd means the constant that tells how readily two partners part at equilibrium.
